Patent US9962364B2, “Wound healing accelerator” (priority 2012, dated 2018)

Test system: mouse-derived 3T3-L1 fibroblasts
Assay: Cell growth of mouse fibroblasts by MTT assay after treating for one minute (Tests 1, 2, 4)
Assay type: cell-based
Settings: treatment for 1 minute, then 24 hours of culture, versus physiological saline control
Method: Specifically, after 20 hours of culture, 10 μl of MTT reagent (from Trevigen Inc.) was added to each well and the cells were further cultured for 4 hours under conditions of 37° C. and 5% CO2. After the culture, 100 μl of the Detergent Reagent (Trevigen Inc.) was each added and the cells were left in the dark overnight at room temperature. The absorbance at 595 nm was then determined using a microplate reader (FilterMaxTM F5 Multi-Mode Microplate Reader, Molecular Devices, LLC.). […] The absorbance of the control group in Test 1 was 0.289±0.016. Gallic acid (from Tokyo Chemical Industry Co., Ltd.), caffeic acid (from Tokyo Chemical Industry Co., Ltd.), (+)-catechin (from Tokyo Chemical Industry Co., Ltd.) and chlorogenic acid (from Sigma-Aldrich Co. LLC.) were assayed. […] The absorbance of the control group in Test 2 was 0.196±0.011. Green tea extract (from MARUZEN PHARMACEUTICALS CO., LTD.) was assayed. […] The absorbance of the control group in Test 4 was 0.276±0.010.

O=C(O)c1cc(O)c(O)c(O)c1 [gallic acid]
growth of fibroblasts (extent of cell growth by MTT assay): no growth of fibroblasts was observed
